{"source": "patent US20230082430A1", "about": "(C4 Therapeutics, Inc., priority 2019, published 2023)", "note": "Counter-ions that a name gives are not always drawn.", "data": [{"test_system": "NCIH929.1 cells", "assay": "Cell viability assay for Table 2 (CellTiter-Glo 2.0, ATP quantification, 96 hr)", "assay_type": "cell-based", "settings": "96 h", "from_the_text": "(§1) Cell Viability Assay for Table 2\n(§2) CellTiter-Glo® 2.0 Assay was purchased from Promega (Madison, Wis., USA). NCIH929.1 cell line was purchased from ATCC (Manassas, Va., USA). Cell culture flasks and 384-well microplates were acquired from VWR (Radnor, Pa., USA).", "units": {"IC50": "nM"}, "values": [{"compound": "O=C1CCC(N2C(=O)c3cccc4cccc2c34)C(=O)N1", "note": "(stereo not drawn) [Compound 139, 3-(2-oxobenzo[cd]indol-1(2H)-yl)piperidine-2,6-dione]", "IC50": "< 100"}]}, {"test_system": "NCIH929.1 cells", "assay": "Cell viability assay for Table 2 (CellTiter-Glo 2.0, ATP quantification, 96 hr)", "assay_type": "cell-based", "settings": "96 h, NCIH929.1 cell viability, 96 hr, top concentration 1 μM, 14 points half log titration; read-out: IC50", "from_the_text": "as §1, §2", "units": {"IC50": "nM"}, "values": [{"compound": "CC(=O)N1CCN(Cc2ccc(Cc3ccc4c5c(cccc35)C(=O)N4C3CCC(=O)NC3=O)cc2)CC1", "note": "(stereo not drawn) [Compound 108, 3-(6-(4-((4-acetylpiperazin-1-yl)methyl)benzyl)-2-oxobenzo[cd]indol-1(2H)-yl)piperidine-2,6-dione]", "IC50": "< 1"}, {"compound": "O=C1CCC(N2C(=O)c3cccc4c(Cc5ccc(CN6CCN(S(=O)(=O)CC(F)(F)F)CC6)cc5)ccc2c34)C(=O)N1", "note": "(stereo not drawn) [Compound 109, 3-(2-oxo-6-(4-((4-((2,2,2-trifIuoroethyl)sulfonyl)piperazin-1-yl)methyl)benzyl)benzo[cd]indol-1(2H)-yl)piperidine-2,6-dione]", "IC50": "< 1"}, {"compound": "CC1(C(=O)N2CCN(Cc3ccc(Cc4ccc5c6c(cccc46)C(=O)N5C4CCC(=O)NC4=O)cc3)CC2)CCC1", "note": "(stereo not drawn) [Compound 110, 3-(6-(4-((4-(1-methylcyclobutane-1-carbonyl)piperazin-1-yl)methyl)benzyl)-2-oxobenzo[cd]indol-1(2H)-yl)piperidine-2,6-dione]", "IC50": "< 1"}, {"compound": "O=C1CCC(N2C(=O)c3cccc4c(Cc5ccc(CN6CCN(C(=O)c7ccccc7)CC6)cc5)ccc2c34)C(=O)N1", "note": "(stereo not drawn) [Compound 111, 3-(6-(4-((4-benzoylpiperazin-1-yl)methyl)benzyl)-2-oxobenzo[cd]indol-1(2H)-yl)piperidine-2,6-dione]", "IC50": "< 1"}, {"compound": "O=C1CCC(N2C(=O)c3cccc4c(Cc5ccc(CN6CCN(C(=O)C7CC7)CC6)cc5)ccc2c34)C(=O)N1", "note": "(stereo not drawn) [Compound 112, 3-(6-(4-((4-(cyclopropanecarbonyl)piperazin-1-yl)methyl)benzyl)-2-oxobenzo[cd]indol-1(2H)-yl)piperidine-2,6-dione]", "IC50": "< 1"}, {"compound": "O=C1CCC(N2C(=O)c3cccc4c(Cc5ccc(CN6CCN(CC7CC7)CC6)cc5)ccc2c34)C(=O)N1", "note": "(stereo not drawn) [Compound 113, 3-(6-(4-((4-(cyclopropylmethyl)piperazin-1-yl)methyl)benzyl)-2-oxobenzo[cd]indol-1(2H)-yl)piperidine-2,6-dione]", "IC50": "< 1"}, {"compound": "CN1CCN(Cc2ccc(Cc3ccc4c5c(cccc35)C(=O)N4C3CCC(=O)NC3=O)cc2)CC1", "note": "(stereo not drawn) [Compound 114, 3-(6-(4-((4-methylpiperazin-1-yl)methyl)benzyl)-2-oxobenzo[cd]indol-1(2H)-yl)piperidine-2,6-dione]", "IC50": "< 1"}, {"compound": "O=C1CCC(N2C(=O)c3cccc4c(Cc5ccc(CN6CC7CCC(C6)O7)cc5)ccc2c34)C(=O)N1", "note": "(stereo not drawn) [Compound 115, 3-(6-(4-((8-oxa-3-azabicyclo[3.2.1]octan-3-yl)methyl)benzyl)-2-oxobenzo[cd]indol-1(2H)-yl)piperidine-2,6-dione]", "IC50": "< 1"}, {"compound": "CN1CCN(Cc2ccc(Cc3ccc4c5c(cccc35)C(=O)N4C3CCC(=O)NC3=O)cc2)CC1=O", "note": "(stereo not drawn) [Compound 116, 3-(6-(4-((4-mcthyl-3-oxopiperazin-1-yl)methyl)benzyl)-2-oxobenzo[cd]indol-1(2H)-yl)piperidme-2,6-dione]", "IC50": "< 1"}, {"compound": "O=C1CCC(N2C(=O)c3cccc4c(Cc5ccc(CN6Cc7ccccc7C6)cc5)ccc2c34)C(=O)N1", "note": "(stereo not drawn) [Compound 117, 3-(6-(4-(isoindolin-2-ylmethyl)benzyl)-2-oxobenzo[cd]indol-1(2H)-yl)piperidine-2,6-dione]", "IC50": "< 1"}, {"compound": "O=C1CCC(N2C(=O)c3cccc4c(Cc5ccc(CN6CCOc7ccccc7C6)cc5)ccc2c34)C(=O)N1", "note": "(stereo not drawn) [Compound 118, 3-(6-(4-((2,3-dihydrobenzo[f][1,4]oxazepin-4(5H)-yl)methyl)benzyl)-2-oxobenzo[cd]indol-1(2H)-yl)piperidine-2,6-dione]", "IC50": "< 1"}, {"compound": "O=C1CCC(N2C(=O)c3cccc4c(Cc5ccc(CN6CCOC(c7ccc(F)cc7)C6)cc5)ccc2c34)C(=O)N1", "note": "(stereo not drawn) [Compound 119, 3-(6-(4-((2-(4-fluorophenyl)morpholino)methyl)benzyl)-2-oxobenzo[cd]indol-1(2H)-yl)piperidine-2,6-dione]", "IC50": "< 1"}, {"compound": "O=C1CCC(N2C(=O)c3cccc4c(Cc5ccc(CN6CC(Oc7ccc(F)cc7)C6)cc5)ccc2c34)C(=O)N1", "note": "(stereo not drawn) [Compound 120, 3-(6-(4-((3-(4-fluorophenoxy)azetidin-1-yl)methyl)benzyl)-2-oxobenzo[cd]indol-1(2H)-yl)piperidine-2,6-dione]", "IC50": "< 1"}, {"compound": "O=C1CCC(N2C(=O)c3cccc4c(Cc5ccc(CN6CCn7c(nnc7C(F)(F)F)C6)cc5)ccc2c34)C(=O)N1", "note": "(stereo not drawn) [Compound 121, 3-(2-oxo-6-(4-((3-(trifluoromethyl)-5,6-dihydro-[1,2,4]triazolo[4,3-a]pyrazin-7(8H)-yl)methyl)benzyl)benzo[cd]indol-1(2H)-yl)piperidine-2,6-dione]", "IC50": "< 1"}, {"compound": "O=C1CCC(N2C(=O)c3cccc4c(Cc5ccc(CN6CCS(=O)(=O)CC6)cc5)ccc2c34)C(=O)N1", "note": "(stereo not drawn) [Compound 122, 3-(6-(4-((1,4-dioxidothiomorpholino)methyl)benzyl)-2-oxobenzo[cd]indol-1(2H)-yl)piperidine-2,6-dione]", "IC50": "< 1"}, {"compound": "O=C1CCC(N2C(=O)c3cccc4c(Cc5ccc(CN6CCCOCC6)cc5)ccc2c34)C(=O)N1", "note": "(stereo not drawn) [Compound 123, 3-(6-(4-((1,4-oxazepan-4-yl)methyl)benzyl)-2-oxobenzo[cd]indol-1(2H)-yl)piperidine-2,6-dione]", "IC50": "< 1"}, {"compound": "COC(=O)c1ccc2c3c(cccc13)C(=O)N2C1CCC(=O)NC1=O", "note": "(stereo not drawn) [Compound 124, methyl 1-(2,6-dioxo-3-piperidyl)-2-oxo-benzo[cd]indole-6-carboxylate]", "IC50": "> 999"}, {"compound": "CC1(C(=O)N2CCC(c3cn(Cc4ccc5c6c(cccc46)C(=O)N5C4CCC(=O)NC4=O)nn3)CC2)CCC1", "note": "(stereo not drawn) [Compound 125, 3-[6-[[4-[1-(1-methylcyclobutanecarbonyl)-4-piperidyl]triazol-1-yl]methyl]-2-oxo-benzo[cd]indol-1-yl]piperidine-2,6-dione]", "IC50": "< 1"}, {"compound": "CC1(n2cc(Cc3ccc4c5c(cccc35)C(=O)N4C3CCC(=O)NC3=O)cn2)CCN(c2ncccc2F)CC1", "note": "(stereo not drawn) [Compound 126, 3-[6-[[1-[1-(3-fluoro-2-pyridyl)-4-methyl-4-piperidyl]pyrazol-4-yl]methyl]-2-oxo-benzo[cd]indol-1-yl]piperidine-2,6-dione]", "IC50": "< 1"}, {"compound": "CC1(c2cn(Cc3ccc4c5c(cccc35)C(=O)N4C3CCC(=O)NC3=O)nn2)CCN(C(=O)C2(C(F)(F)F)CC2)CC1", "note": "(stereo not drawn) [Compound 127, 3-[6-[[4-[4-methyl-1-[1-(trifluoromethyl)cyclopropanecarbonyl]-4-piperidyl]triazol-1-yl]methyl]-2-oxo-benzo[cd]indol-1-yl]piperidine-2,6-dione]", "IC50": "< 1"}, {"compound": "N#Cc1ccc(N2CCN(Cc3cnn(Cc4ccc5c6c(cccc46)C(=O)N5C4CCC(=O)NC4=O)c3)CC2)c(F)c1", "note": "(stereo not drawn) [Compound 128, 4-[4-[[1-[[1-(2,6-dioxo-3-piperidyl)-2-oxo-benzo[cd]indol-6-yl]methyl]pyrazol-4-yl]methyl]piperazin-1-yl]-3-fluoro-benzonitrile]", "IC50": "< 1"}, {"compound": "N#Cc1ccc(N2CCN(Cc3ccc(Cc4ccc5c6c(cccc46)C(=O)N5C4CCC(=O)NC4=O)cc3)C3(CC3)C2)c(F)c1", "note": "(stereo not drawn) [Compound 131, 4-[4-[[4-[[1-(2,6-dioxo-3-piperidyl)-2-oxo-benzo[cd]indol-6-yl]methyl]phenyl]methyl]-4,7-diazaspiro[2.5]octan-7-yl]-3-fluoro-benzonitrile]", "IC50": "< 1"}, {"compound": "CN(C(=O)N1CCC(n2cc(Cc3ccc4c5c(cccc35)C(=O)N4C3CCC(=O)NC3=O)cn2)CC1)C(C)(C)C", "note": "(stereo not drawn) [Compound 132, N-tert-butyl-4-[4-[[1-(2,6-dioxo-3-piperidyl)-2-oxo-benzo[cd]indol-6-yl]methyl]pyrazol-1-yl]-N-methyl-piperidine-1-carboxamide]", "IC50": "< 1"}, {"compound": "CC1(C(=O)N2CCC(C)(n3cc(Cc4ccc5c6c(cccc46)C(=O)N5C4CCC(=O)NC4=O)c(Cl)n3)CC2)CCC1", "note": "(stereo not drawn) [Compound 133]", "IC50": "< 1"}, {"compound": "O=C1CCC(N2C(=O)c3cccc4c(Cc5ccc(C(=O)N6CCN(c7ccccc7F)CC6)cc5)ccc2c34)C(=O)N1", "note": "(stereo not drawn) [Compound 134, 3-[6-[[4-[4-(2-fluorophenyl)piperazine-1-carbonyl]phenyl]methyl]-2-oxo-benzo[cd]indol-1-yl]piperidine-2,6-dione]", "IC50": "< 1"}, {"compound": "O=C1CCC(N2C(=O)c3cccc4c(Cc5ccc(CN6CCN(c7ccccc7F)CC67CC7)cc5)ccc2c34)C(=O)N1", "note": "(stereo not drawn) [Compound 135, 3-[6-[[4-[[7-(2-fluorophenyl)-4,7-diazaspiro[2.5]octan-4-yl]methyl]phenyl]methyl]-2-oxo-benzo[cd]indol-1-yl]piperidine-2,6-dione]", "IC50": "< 1"}, {"compound": "C#CCNc1ccc2c3c(cccc13)C(=O)N2C1CCC(=O)NC1=O", "note": "(stereo not drawn) [Compound 136, 3-[2-oxo-6-(prop-2-ynylamino)benzo[cd]indol-1-yl]piperidine-2,6-dione]", "IC50": "> 999"}, {"compound": "C#CCOc1ccc2c3c(cccc13)C(=O)N2C1CCC(=O)NC1=O", "note": "(stereo not drawn) [Compound 137, 3-(2-oxo-6-prop-2-ynoxy-benzo[cd]indol-1-yl)piperidine-2,6-dione]", "IC50": "< 100"}, {"compound": "CC(C)(C)OC(=O)N1CCC(n2cc(C(=O)c3ccc4c5c(cccc35)C(=O)N4C3CCC(=O)NC3=O)cn2)CC1", "note": "(stereo not drawn) [Compound 143, tert-butyl 4-(4-(1-(2,6-dioxopiperidin-3-yl)-2-oxo-1,2-dihydrobenzo[cd]indole-6-carbonyl)-1H-pyrazol-1-yl)piperidine-1-carboxylate]", "IC50": "< 999"}, {"compound": "Nc1ccc2c3c(cccc13)C(=O)N2C1CCC(=O)NC1=O", "note": "(stereo not drawn) [Compound 144, 3-(6-Amino-2-oxo-2H-benzo[cd]indol-1-yl)-piperidine-2,6-dione hydrochloride]", "IC50": "< 999"}, {"compound": "N#Cc1ccc2c3c(cccc13)C(=O)N2C1CCC(=O)NC1=O", "note": "(stereo not drawn) [Compound 145, 1-(2,6-dioxopiperidin-3-yl)-2-oxo-1,2-dihydrobenzo[cd]indole-6-carbonitrile]", "IC50": "> 999"}, {"compound": "O=C1CCC(N2C(=O)c3cccc4c(Cc5ccc(CN6C7COCC6C7)cc5)ccc2c34)C(=O)N1", "note": "(stereo not drawn) [Compound 146, 3-[6-[[4-(3-oxa-6-azabicyclo[3.1.1]heptan-6-ylmethyl)phenyl]methyl]-2-oxo-benzo[cd]indol-1-yl]piperidine-2,6-dione]", "IC50": "< 1"}]}]}
